# System: fresh human Peripheral Blood Mononuclear Cells (hPBMCs)
# Experiment: Cytokine production (IFNα, IL-6, IL-1β) by hPBMCs in basal condition and after TLR-9 stimulation (ODN2216)
# Assay type: cell-based
# Details: TLR-9-stimulated hPBMCs, 24 h; PD0325901 1 μM + ATO 2.5 μM
compound,measurement,value
O=C(NOC[C@H](O)CO)c1ccc(F)c(F)c1Nc1ccc(I)cc1F [PD0325901],production of IFNα after inhibition by ATO,did not restore

# From patent US20240350538A1, “Use of an arsenic compound for treating a short or long cytokine storm in various autoimmune/inflammatory diseases in humans or animals” (priority 2020, published 2024)
